Here are results for 21 compounds from patent US10160755B2 (Plexxikon Inc., priority 2015, dated 2018).

One assay concerns the target T1, FLT3-ITD (Homo sapiens, UniProt P36888).
T1 construct: FLT3-ITD; Invitrogen #PV6190
T1 sequence (P36888 1-993): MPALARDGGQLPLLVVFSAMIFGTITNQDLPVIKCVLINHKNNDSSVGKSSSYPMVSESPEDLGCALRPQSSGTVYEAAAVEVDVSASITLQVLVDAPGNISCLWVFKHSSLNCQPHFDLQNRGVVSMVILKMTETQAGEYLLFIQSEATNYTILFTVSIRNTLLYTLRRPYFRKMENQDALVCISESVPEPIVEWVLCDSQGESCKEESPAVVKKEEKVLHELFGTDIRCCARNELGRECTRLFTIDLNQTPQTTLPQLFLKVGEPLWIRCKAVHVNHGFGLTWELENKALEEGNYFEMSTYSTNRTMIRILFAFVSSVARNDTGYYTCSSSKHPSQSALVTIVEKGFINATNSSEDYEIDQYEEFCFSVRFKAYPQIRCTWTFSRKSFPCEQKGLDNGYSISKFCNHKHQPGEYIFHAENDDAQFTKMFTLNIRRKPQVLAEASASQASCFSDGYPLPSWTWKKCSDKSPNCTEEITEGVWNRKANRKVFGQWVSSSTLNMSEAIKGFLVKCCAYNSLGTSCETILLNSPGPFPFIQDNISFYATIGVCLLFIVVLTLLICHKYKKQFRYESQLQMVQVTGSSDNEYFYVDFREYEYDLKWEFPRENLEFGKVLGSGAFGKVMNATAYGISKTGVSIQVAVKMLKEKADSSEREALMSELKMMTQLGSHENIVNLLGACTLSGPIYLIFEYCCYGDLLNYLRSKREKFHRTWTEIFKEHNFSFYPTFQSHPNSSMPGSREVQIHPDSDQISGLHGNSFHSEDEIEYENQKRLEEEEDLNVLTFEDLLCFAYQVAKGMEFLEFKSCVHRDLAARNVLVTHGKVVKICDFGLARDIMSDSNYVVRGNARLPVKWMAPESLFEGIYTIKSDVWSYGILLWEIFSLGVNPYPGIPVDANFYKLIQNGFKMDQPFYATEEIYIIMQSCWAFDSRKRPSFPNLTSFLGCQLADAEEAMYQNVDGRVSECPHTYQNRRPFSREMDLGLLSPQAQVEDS
In words: FLT3-ITD biochemical kinase assay (AlphaScreen). In short, it runs like this: (§1)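 Recombinant kinase, biotin-GG(EEEEY)10EE 30 nM final, ATP 10 μM (D835Y) / 100 μM (ITD). Stop/detect: SA donor beads 20 min RT, then PY20 acceptor beads 60 min RT. AlphaScreen 580 nm signal; IC50.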

For the next assay, the target named is T2, FLT3-D835Y (Homo sapiens, UniProt P36888, D835Y).
T2 construct: purchased Invitrogen PV3967
T2 sequence (P36888 27-993 D835Y): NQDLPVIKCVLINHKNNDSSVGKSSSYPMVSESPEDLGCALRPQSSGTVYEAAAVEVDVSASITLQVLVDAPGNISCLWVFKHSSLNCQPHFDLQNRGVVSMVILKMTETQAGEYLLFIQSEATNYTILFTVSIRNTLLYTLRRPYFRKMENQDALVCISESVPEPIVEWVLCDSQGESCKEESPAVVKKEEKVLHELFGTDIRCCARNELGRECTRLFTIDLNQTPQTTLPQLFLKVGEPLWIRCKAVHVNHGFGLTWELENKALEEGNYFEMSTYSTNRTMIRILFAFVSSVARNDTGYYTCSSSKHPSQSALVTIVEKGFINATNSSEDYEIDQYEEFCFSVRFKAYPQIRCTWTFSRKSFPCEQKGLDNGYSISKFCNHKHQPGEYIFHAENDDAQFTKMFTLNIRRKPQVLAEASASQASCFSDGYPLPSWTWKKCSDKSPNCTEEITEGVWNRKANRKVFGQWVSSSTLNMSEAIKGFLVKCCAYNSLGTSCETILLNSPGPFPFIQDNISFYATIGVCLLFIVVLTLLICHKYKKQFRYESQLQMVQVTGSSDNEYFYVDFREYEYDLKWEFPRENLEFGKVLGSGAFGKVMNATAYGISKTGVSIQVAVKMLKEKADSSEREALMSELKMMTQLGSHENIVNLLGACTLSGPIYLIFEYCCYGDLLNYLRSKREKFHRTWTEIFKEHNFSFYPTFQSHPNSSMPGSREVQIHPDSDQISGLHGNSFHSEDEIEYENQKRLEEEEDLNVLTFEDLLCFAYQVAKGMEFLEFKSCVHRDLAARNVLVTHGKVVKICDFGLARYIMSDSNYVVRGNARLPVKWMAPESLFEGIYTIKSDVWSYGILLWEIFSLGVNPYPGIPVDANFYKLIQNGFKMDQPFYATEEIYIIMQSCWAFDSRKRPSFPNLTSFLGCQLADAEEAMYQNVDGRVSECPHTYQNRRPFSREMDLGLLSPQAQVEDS
In words: FLT3-D835Y biochemical kinase assay (AlphaScreen). Put shortly:
as §1

The structures appear in SMILES notation.

For the compound `Cn1cnc2ccc(-c3c[nH]c4nnc(Cl)cc34)cc21` [P-313, 3-chloro-5-(3-methylbenzimidazol-5-yl)-7H-pyrrolo[2,3-c]pyridazine], the half-maximal inhibitory concentration (IC50) against FLT3-ITD and against FLT3-D835Y was 0.0001 to 1 µM in each case.

Take `c1cc(N2CCOCC2)ncc1-c1cnc2[nH]cc(-c3ccc4ncn(C5CCCNC5)c4c3)c2c1` (stereo not drawn) [P-321, 4-[5-[3-[3-(3-piperidyl)benzimidazol-5-yl]-1H-pyrrolo[2,3-b]pyridin-5-yl]-2-pyridyl]morpholine]: the IC50 against FLT3-ITD and on FLT3-D835Y was 0.0001 to 1 µM in each case.

On to `CCN1CCN(c2cc(-c3cnc4[nH]cc(-c5ccc6ncn(C7CCCNC7)c6c5)c4n3)ccn2)CC1` (stereo not drawn) [P-327, 2-[2-(4-ethylpiperazin-1-yl)-4-pyridyl]-7-[3-(3-piperidyl)benzimidazol-5-yl]-5H-pyrrolo[2,3-b]pyrazine], for which the IC50 against FLT3-ITD and at FLT3-D835Y was 0.0001 to 1 µM each time.

Turning to `Cc1cc(C#Cc2cnc3[nH]cc(-c4ccc5ncn(C6CCCNC6)c5c4)c3n2)cc(C)n1` (stereo not drawn) [P-283, 2-[2-(2,6-dimethyl-4-pyridyl)ethynyl]-7-[3-(3-piperidyl)benzimidazol-5-yl]-5H-pyrrolo[2,3-b]pyrazine], the IC50 on FLT3-ITD and on FLT3-D835Y was 0.0001 to 1 µM each time.

For the compound `Cc1ccc(-c2cnc3[nH]cc(-c4ccc5ncn(C(C)(C)C)c5c4)c3n2)cn1` [P-388, 7-(3-tert-butylbenzimidazol-5-yl)-2-(6-methyl-3-pyridyl)-5H-pyrrolo[2,3-b]pyrazine], the half-maximal inhibitory concentration (IC50) against FLT3-ITD and at FLT3-D835Y was 0.0001 to 1 µM each time.

`CC(C)(C)n1cnc2ccc(-c3c[nH]c4ncc(-c5ccnc(N6CCCCC6)c5)nc34)cc21` [P-338, 7-(3-tert-butylbenzimidazol-5-yl)-2-[2-(1-piperidyl)-4-pyridyl]-5H-pyrrolo[2,3-b]pyrazine]: the IC50 at FLT3-ITD and against FLT3-D835Y was 0.0001 to 1 µM throughout.

As to `c1nc(N2CCOCC2)ncc1-c1cnc2[nH]cc(-c3ccc4ncn(C5CCCNC5)c4c3)c2c1` (stereo not drawn) [P-277, 4-[5-[3-[3-(3-piperidyl)benzimidazol-5-yl]-1H-pyrrolo[2,3-b]pyridin-5-yl]pyrimidin-2-yl]morpholine], the IC50 against FLT3-ITD and at FLT3-D835Y was 0.0001 to 1 µM throughout.

In the case of `Cc1ncc(C#Cc2cnc3[nH]cc(-c4ccc5ncn(C6CCCNC6)c5c4)c3n2)cn1` (stereo not drawn) [P-285, 2-[2-(2-methylpyrimidin-5-yl)ethynyl]-7-[3-(3-piperidyl)benzimidazol-5-yl]-5H-pyrrolo[2,3-b]pyrazine], the IC50 against FLT3-ITD and at FLT3-D835Y was 0.0001 to 1 µM throughout.

As to `CC(C)(O)c1ncc(-c2cnc3[nH]cc(-c4ccc5ncn(C(C)(C)C)c5c4)c3n2)cn1` [P-380, 2-[5-[7-(3-tert-butylbenzimidazol-5-yl)-5H-pyrrolo[2,3-b]pyrazin-2-yl]pyrimidin-2-yl]propan-2-ol], the 50% inhibitory concentration (IC50) on FLT3-ITD and at FLT3-D835Y was 0.0001 to 1 µM throughout.

As to `COc1cc(C#Cc2cnc3[nH]cc(-c4ccc5ncn(C(C)(C)C)c5c4)c3n2)ccn1` [P-279, 7-(1-(tert-butyl)-1H-benzo[d]imidazol-6-yl)-2-((2-methoxypyridin-4-yl)ethynyl)-5H-pyrrolo[2,3-b]pyrazine], the IC50 at FLT3-ITD and at FLT3-D835Y was 0.0001 to 1 µM in each case.

Consider `CC(C)(C)n1cnc2ccc(-c3c[nH]c4ncc(-c5cnc(O)nc5)nc34)cc21` [P-363, 5-[7-(3-tert-butylbenzimidazol-5-yl)-5H-pyrrolo[2,3-b]pyrazin-2-yl]pyrimidin-2-ol], for which the IC50 on FLT3-ITD and on FLT3-D835Y was 0.0001 to 1 µM in each case.

As to `O=S1(=O)CCCCN1c1cc(-c2cnc3[nH]cc(-c4ccc5ncn(C6CCCNC6)c5c4)c3n2)ccn1` (stereo not drawn) [P-310, 2-[4-[7-[3-(3-piperidyl)benzimidazol-5-yl]-5H-pyrrolo[2,3-b]pyrazin-2-yl]-2-pyridyl]thiazinane 1,1-dioxide], the IC50 against FLT3-ITD and against FLT3-D835Y was 0.0001 to 1 µM in each case.

As to `CC(C)(C)n1cnc2ccc(-c3c[nH]c4ncc(-c5ccc(N6CCCS6(=O)=O)cc5)cc34)cc21` [P-320, 2-[4-[3-(3-tert-butylbenzimidazol-5-yl)-1H-pyrrolo[2,3-b]pyridin-5-yl]phenyl]-1,2-thiazolidine 1,1-dioxide], the 50% inhibitory concentration (IC50) on FLT3-ITD and at FLT3-D835Y was 0.0001 to 1 µM in each case.

Turning to `CC(C)(C)n1cnc2ccc(-c3c[nH]c4ncc(-c5ccnc(N6CCCS6(=O)=O)c5)nc34)cc21` [P-294, 2-[4-[7-(3-tert-butylbenzimidazol-5-yl)-5H-pyrrolo[2,3-b]pyrazin-2-yl]-2-pyridyl]-1,2-thiazolidine 1,1-dioxide], the IC50 against FLT3-ITD and against FLT3-D835Y was 0.0001 to 1 µM throughout.

For the compound `CN1CCN(c2cccc(-c3cnc4[nH]cc(-c5ccc6ncn(C(C)(C)C)c6c5)c4n3)c2)CC1` [P-331, 7-(3-tert-butylbenzimidazol-5-yl)-2-[3-(4-methylpiperazin-1-yl)phenyl]-5H-pyrrolo[2,3-b]pyrazine], the 50% inhibitory concentration (IC50) on FLT3-ITD and against FLT3-D835Y was 0.0001 to 1 µM each time.

As for `CC(C)(C)n1cnc2ccc(-c3c[nH]c4ncc(-c5ccc(N6CCCCC6)nc5)nc34)cc21` [P-347, 7-(1-(tert-butyl)-1H-benzo[d]imidazol-6-yl)-2-(6-(piperidin-1-yl)pyridin-3-yl)-5H-pyrrolo[2,3-b]pyrazine], the IC50 at FLT3-ITD and on FLT3-D835Y was 0.0001 to 1 µM throughout.

Turning to `CC(C)(C)n1cnc2ccc(-c3c[nH]c4ncc(-c5ccc(N6CCOCC6)nc5)nc34)cc21` [P-326, 4-[5-[7-(3-tert-butylbenzimidazol-5-yl)-5H-pyrrolo[2,3-b]pyrazin-2-yl]-2-pyridyl]morpholine], the half-maximal inhibitory concentration (IC50) against FLT3-ITD and against FLT3-D835Y was 0.0001 to 1 µM throughout.

As to `CC(C)(C)n1cnc2ccc(-c3c[nH]c4ncc(-c5ccc(N6CCOCC6)nc5)cc34)cc21` [P-322, 4-[5-[3-(3-tert-butylbenzimidazol-5-yl)-1H-pyrrolo[2,3-b]pyridin-5-yl]-2-pyridyl]morpholine], the IC50 against FLT3-ITD and at FLT3-D835Y was 0.0001 to 1 µM throughout.

For the compound `CC(C)(C)n1cnc2ccc(-c3n[nH]c4ncc(-c5ccnc(N6CCOCC6)c5)cc34)cc21` [P-297, 4-[4-[3-(3-tert-butylbenzimidazol-5-yl)-1H-pyrazolo[3,4-b]pyridin-5-yl]-2-pyridyl]morpholine], the 50% inhibitory concentration (IC50) on FLT3-ITD and on FLT3-D835Y was 0.0001 to 1 µM in each case.

`CC(C)(C)n1cnc2ccc(-c3c[nH]c4ncc(-c5ccc(N6CCC(F)(F)CC6)nc5)nc34)cc21` [P-356, 7-(3-tert-butylbenzimidazol-5-yl)-2-[6-(4,4-difluoro-1-piperidyl)-3-pyridyl]-5H-pyrrolo[2,3-b]pyrazine]: the IC50 against FLT3-ITD and against FLT3-D835Y was 0.0001 to 1 µM throughout.

As to `Cc1ncc(C#Cc2cnc3[nH]cc(-c4ccc5ncn(C(C)(C)C)c5c4)c3c2)cn1` [P-383, 1-tert-butyl-6-[5-[2-(2-methylpyrimidin-5-yl)ethynyl]-1H-pyrrolo[2,3-b]pyridin-3-yl]benzimidazole], the concentration for half-maximal inhibition (IC50) against FLT3-ITD and at FLT3-D835Y was 0.0001 to 1 µM throughout.
